From patent US12187759B2, “TLR7 agonists” (Primmune Therapeutics, Inc., priority 2019, dated 2025)

Columns and labels:
[1] = system: hPBMCs (Human Peripheral Blood Mononuclear Cells); assay: Induction of interferon-α in hPBMCs in vitro; type: cell-based
How it was run: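 Peripheral blood mononuclear cells from healthy human donors were dispensed into replicate culture wells at 1.0-7.5×10^6 cells per well. They were exposed to test compound for 24 hours at 37° C. in humidified 5% CO2, with untreated wells as controls. Secreted interferon-α was quantified with a multisubtype ELISA or as IFNα2a in a luminex panel. MEC was defined as the lowest concentration giving a significant rise above baseline, generally at least 80 pg/ml. IFNmax was the highest IFN level seen at any tested concentration.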

human TLR8 = target: T1, human TLR8 (Homo sapiens, UniProt Q9NR97); assay: TLR8 reporter cell assay (HEK293 cells stably expressing human TLR8 with NF-κB-driven SEAP reporter); type: cell-based; settings: concentrations up to 500 μM; significant = >5% of ymax
T1 construct: host or cells: HEK293
T1 sequence (Q9NR97 27-1041): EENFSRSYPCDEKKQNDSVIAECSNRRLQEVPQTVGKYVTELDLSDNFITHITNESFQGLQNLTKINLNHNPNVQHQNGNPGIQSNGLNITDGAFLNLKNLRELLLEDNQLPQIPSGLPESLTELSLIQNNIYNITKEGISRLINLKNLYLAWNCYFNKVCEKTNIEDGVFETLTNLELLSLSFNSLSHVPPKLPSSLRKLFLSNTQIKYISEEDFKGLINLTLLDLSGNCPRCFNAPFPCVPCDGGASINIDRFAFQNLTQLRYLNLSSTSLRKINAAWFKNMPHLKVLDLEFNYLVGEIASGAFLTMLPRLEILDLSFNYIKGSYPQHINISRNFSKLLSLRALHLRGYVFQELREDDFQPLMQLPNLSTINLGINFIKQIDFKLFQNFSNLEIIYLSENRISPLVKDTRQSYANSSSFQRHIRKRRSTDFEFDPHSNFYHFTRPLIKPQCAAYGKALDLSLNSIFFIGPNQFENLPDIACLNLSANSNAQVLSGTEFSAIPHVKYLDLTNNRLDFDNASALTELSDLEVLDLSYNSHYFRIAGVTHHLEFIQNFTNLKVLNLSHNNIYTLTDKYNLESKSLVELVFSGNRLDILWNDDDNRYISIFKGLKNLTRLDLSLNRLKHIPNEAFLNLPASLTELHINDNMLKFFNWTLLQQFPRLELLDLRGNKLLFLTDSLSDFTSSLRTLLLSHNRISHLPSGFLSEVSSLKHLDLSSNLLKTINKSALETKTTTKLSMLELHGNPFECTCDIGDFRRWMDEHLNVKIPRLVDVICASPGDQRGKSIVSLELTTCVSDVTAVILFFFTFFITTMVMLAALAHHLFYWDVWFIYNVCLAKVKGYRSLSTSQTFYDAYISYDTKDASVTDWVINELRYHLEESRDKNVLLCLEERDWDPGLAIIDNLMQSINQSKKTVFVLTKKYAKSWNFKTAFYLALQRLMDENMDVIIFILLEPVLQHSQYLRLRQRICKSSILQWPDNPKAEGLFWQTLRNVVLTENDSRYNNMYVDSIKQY
Text: The engagement of TLRs by cognate ligands triggers downstream signaling cascades, leading to the activation of NF-κB and other transcription factors which initiate various immunomodulatory effects. The human embryonic kidney cell line, HEK293, is essentially non-responsive to TLR agonists, but ectopic expression of TLRs in these cells allows cognate agonists to activate endogenous NF-κB. Accordingly, the HEK293-TLR-NF-κB inducible reporter system is used to assay TLR agonists.
HEK293 cell lines stably expressing human TLR7 or TLR8 together with an NF-κB-driven-secreted alkaline phosphatase (SEAP) reporter were invented at InvivoGen (San Diego, California, USA) and used to assess compounds of the present invention for TLR7 and TLR8 agonist activities. Cells were seeded at 2-5×10^4 cells/well in 96 well plates (200 μl/well) and treated with various concentrations of compound (10 μl) for 15-24 hours. SEAP activity was determined by measuring OD at 650 nm; the media used to culture the cell lines contains the reagents required for SEAP detection. […]

activity in TLR8 reporter cell assay (% of ymax for TLR8 as measured at 28.5 μM resiquimod) (human TLR8): > 5 % of ymax
SMILES: CC[C@H](O)[C@@H]1C[C@@H](O)[C@H](n2c(=O)sc3c(=O)[nH]c(N)nc32)O1 [Compound A, 5-amino-3-((2R,3R,5S)-3-hydroxy-5-((S)-1-hydroxypropyl)tetrahydrofuran-2-yl)thiazolo[4,5-d]pyrimidine-2,7(3H,6H)-dione, reference compound]
Donor 1 MEC ([1]; Donor 1, interferon-α production): ≤3.125 µM | Donor 1 IFNmax ([1]; Donor 1, maximum IFN at any concentration of the evaluated range): 1061 pg/mL | Donor 2 MEC ([1]; Donor 2, interferon-α production): ≤3.125 µM | Donor 2 IFNmax ([1]; Donor 2, maximum IFN at any concentration of the evaluated range): 481 pg/mL | Donor 3 MEC ([1]; Donor 3, interferon-α production): ≤3.125 µM | Donor 3 IFNmax ([1]; Donor 3, maximum IFN at any concentration of the evaluated range): 2243 pg/mL | Emax ([1]; Homo sapiens, PBMC, 24 h, peak IFNα2a as percentage of peak response of standard 2-Amino-7-(cyclopropylmethyl)-9-B-D-xylofuranosyl-7,9-dihydro-1H-purine-6,8-dione, averaged across donors, read-out: IFNrmax, Relative Maximal IFNα2a Production (%)): 103% | minimal effective concentration ([1]; Homo sapiens, PBMC, minimal effective concentration for interferon-α production (generally at least 80 pg/ml above baseline), geometric mean across at least three donors, 24 hours, read-out: Weighted MEC): ≤ 3.1 µM
